Reference: PMC10301432, “Antiplasmodial, Trypanocidal, and Genotoxicity In Vitro Assessment of New Hybrid α,α-Difluorophenylacetamide-statin Derivatives” (Pharmaceuticals, 2023)
“Also recorded” adds a separate entry of the source. Like-named read-outs stand apart in the source and are kept apart here.

Legend:
[1] = system: S. typhimurium TA97, TA98, TA100, TA102 and TA104 strains; assay: Salmonella/microsome assay, overall outcome; details: all strains, −S9 and +S9; summarized outcome
Protocol: The mutagenicity reverse mutation test was carried out to investigate the potential of 13 (a–d) to induce genetic mutation in S. typhimurium TA97, TA98, TA100, TA102 and TA104 strains. The test was carried out according to the pre-incubation method, both in the absence and presence of a metabolic activation system (4% S9 mix, Aroclor-pre-induced, from Moltox Inc., Boone, NC, USA). DMSO 10% served as the negative control while known mutagens were used as the positive control substances. […] A dose-finding test was carried out with and without the metabolic activation system (S9 mix) for each tester strain.
For the assays without metabolic activation, 0.5 mL of 0.1 mol/L sodium-phosphate buffer (pH 7.4) was added, and for the assays in the presence of metabolic activation, 0.5 mL S9 mix was mixed with 0.1 mL culture medium (2 × 10^8 cells/mL) plus 0.1 mL of each compound solutions. The mixtures were incubated in a shaker at 37 °C (pre-incubation). After 30 min pre-incubation under light protection, the mixture was added to and mixed with 2 mL top agar containing 0.05 mmol/L L-histidine and D-biotin for the S. typhimurium strains. Each of these was then spread on a minimum glucose agar plate. After the top agar solidified, the plates were incubated at 37 °C for 60–72 h. Each tester strain was assayed in triplicate, and the number of revertant colonies was counted for each tester strain and treatment group [58].

[2] = system: HepG2 cells; assay: In vitro micronuclei assay, HepG2; type: cell-based, human; details: HepG2; 3 h of exposure
Protocol: (§1) Fresh HepG2 and CHO-K1 cells were seeded at the density of 1 × 10^5 cells/mL into 24-well plates (1 mL/per well). The compounds 13 (a–d) were then added to the medium to final concentrations of 500, 1000 and 2000 µM and incubation continued for 3 h or 24 h. DMSO 10% was used as the negative control, and, BaP (80 µM) for HepG2 and MMC (5 µM) for CHO-K1 were the positive controls. After exposure to the compounds, the cells were incubated for more than 24 h under growth conditions before quantification of the micronuclei and cytotoxicity. The cytogenetic studies were carried out in triplicate as described previously (see [51]). In order to determine the mitotic index and the number of cells with micronuclei, the medium was replaced by a cold methanol-glacial acetic acid (3:1) fixative for 30 min, and the cells then rinsed with distilled water for 2 min and air dried. The fixed cells were stained with 4,6-diamidino-2-phenylindole (DAPI) ([…]) dissolved in McIlvaine buffer (0.1 M citric acid plus 0.2 M Na2HPO4, pH 7.0) for 60 min, washed with McIlvaine buffer for 5 min, briefly rinsed with distilled water and mounted in glycerol. To determine the mitotic index and the number of cells with micronuclei, 1000 cells per well (3000 cells per concentration) were analyzed under a fluorescence microscope. The results for micronuclei were presented as the percentage of cells containing micronuclei in the 3000 cells/concentration group analyzed. Cells that glowed brightly and had homogenous nuclei were considered as having normal phenotypic morphology. Apoptotic nuclei were identified by the condensed chromatin at the periphery of the nuclear membrane or by fragmented nuclear body morphology. Necrotic cells presented chromatin forms with irregularly shaped aggregates, a pyknotic nucleus (shrunken and darkly stained) and cell membrane disruption, with cellular debris spilled into the extracellular milieu. Once again, 3000 cells were counted and the percentage of viable cells was evaluated, discounting apoptotic and necrotic cells. Statistical differences between the groups were analyzed by two-way ANOVA (p < 0.01) and Tukey’s post hoc test.

[3] = system: P. falciparum parasites (W2 clone) chloroquine-resistant; assay: Antiplasmodial activity, anti-HRPII assay; type: cell-based, Plasmodium falciparum; details: for SI: LC50 (HepG2)/EC50 (P. falciparum); for EC50: P. falciparum W2 clone, 24 h at 37 °C, read-out: EC50; for Antiplasmodial Activity: summarized outcome
From the text: P. falciparum W2 clone was maintained in continuous culture as previously described. […] Prior to testing, the ring-stage parasites were synchronized using sorbitol.
The test quantification was read at 450 nm on a spectrophotometer (SpectraMax340PC384, Molecular Devices Sunnyvale, CA, USA), and the drug activity was expressed as the half-maximal inhibitory concentration (EC50) compared to the drug-free controls using the curve-fitting software Origin 8.0 (OriginLab Corporation, Northampton, MA, USA).

[4] = system: CHO-K1 cells; type: cell-based, Chinese Hamster
Protocol: as §1

[5] = system: Salmonella enterica serovar Typhimurium TA100; assay: Salmonella/microsome assay, TA100
[6] = in vitro; type: cell-based; details: mouse
Protocol: Cardiac cell cultures were incubated for 24 h at 37 °C with different concentrations of the compounds (up to 200 µM) diluted in DMEM (without phenol red). Their morphology and spontaneous contractibility were evaluated by light microscopy and then the cellular viability was determined by the PrestoBlue® assay. For this colorimetric bioassay, PrestoBlue® (Invitrogen, Waltham, MA, USA) was added to each well (using a 10:1 medium/dye), the plate was further incubated for 24 h followed by optical density (OD) measurement performed at 570 and 600 nm, as recommended by the manufacturer.

[7] = system: Salmonella enterica serovar Typhimurium TA104; assay: Salmonella/microsome assay, TA104
Protocol: (§2) Salmonella enterica serovar Typhimurium (S. typhimurium) strains TA97, TA98, TA100, TA104 and TA102 from the authors’ stock were used as described in the mutagenicity assay.
(§3) To determine the cytotoxic effects, after 30 min pre-incubation, the assay mixtures were diluted in 0.9% NaCl (w/v) to obtain a suspension containing 2 × 10^2 cells/mL. […] The plates were then incubated at 37 °C for 24 h and the colonies counted. All the experiments were conducted in triplicate and were repeated at least twice. Statistical differences between the groups were analyzed by a two-way ANOVA (p < 0.05) and Tukey’s post hoc test.

[8] = Salmonella/microsome assay, TA104; details: Salmonella enterica serovar Typhimurium, S. typhimurium TA104 with S9 mix, LC50 (bacterial cytotoxicity) TA104, presence of S9 mix
Protocol: as §2, §3

[9] = system: trypomastigote forms of T. cruzi (Y strain); assay: Trypanocidal activity on bloodstream trypomastigotes; type: cell-based, Trypanosoma cruzi; details: for SI: LC50 (cardiac cells)/EC50 (trypomastigotes); for EC50: Trypanosoma cruzi, bloodstream trypomastigotes, Y strain, 24 h at 37 °C
Protocol: Bloodstream trypomastigote forms (BT) of the Y strain were obtained from infected albino Swiss mice at the peak of parasitemia, isolated by differential centrifugation and resuspended in DMEM to a parasite concentration of 10^7 cells/mL in the presence of 10% of mouse blood. This suspension (100 µL) was added in the same volume of 13 (a–d) and 14 (a–d) previously prepared at twice the desired final concentrations.

[10] = system: Salmonella enterica serovar Typhimurium TA102
[11] = system: CHO-K1 and HepG2 cell lineages; type: cell-based
Protocol: as §1, with “Necrotic cells presented chromatin forms with irregularly shaped aggregates, a pyknotic nucleus (shrunken and darkly stained) and cell membrane disruption, with cellular debris spilled into the extracellular milieu.” left out

[12] = Plasmodium falciparum, W2, 24 h

CC(=O)Nc1ccc(Cl)cc1C(F)(F)C(=O)NCC[C@@H]1C[C@H](CC(=O)OC(C)(C)C)OC(C)(C)O1 [Compound 13c, tert-Butyl 2-((4R,6R)-6-(2-(2-(2-acetamido-5-chlorophenyl)-2,2-difluoroacetamido)ethyl)-2,2-dimethyl-1,3-dioxan-4-yl)acetate]
Bacterial Mutagenicity [1]: not mutagenic and No | micronuclei formation (genotoxicity) [2]: did not induce micronuclei formation | SI [3]: >85 | EC50 [3]: 11.8 ± 2 µM | EC50 [3, 12]: < 14 µM | Antiplasmodial Activity [3]: Yes | mitotic index [4]: did not affect the mitotic index | revertant His+ colonies TA100 ([5]; +S9, 3 µM): 223 ± 39 | revertant His+ colonies TA100 ([5]; +S9, 15 µM): 223 ± 47 | revertant His+ colonies TA100 ([5]; +S9, 30 µM): 228 ± 17 | revertant His+ colonies TA100 ([5]; +S9, 150 µM): 278 ± 5 | revertant His+ colonies TA100 ([5]; +S9, 300 µM): 286 ± 18 | revertant His+ colonies TA100 ([5]; +S9, 1500 µM): 300 ± 15 | revertant His+ colonies TA100 ([5]; −S9, 3 µM): 135 ± 38 | revertant His+ colonies TA100 ([5]; −S9, 15 µM): 135 ± 21 | revertant His+ colonies TA100 ([5]; −S9, 30 µM): 135 ± 30 | revertant His+ colonies TA100 ([5]; −S9, 150 µM): 140 ± 31 | revertant His+ colonies TA100 ([5]; −S9, 300 µM): 164 ± 17 | revertant His+ colonies TA100 ([5]; −S9, 1500 µM): 168 ± 15 | CC50 at 96 h [6]: 153 ± 25.2 µM | revertant His+ colonies TA104 ([7]; +S9, 3 µM): 384 ± 34 | revertant His+ colonies TA104 ([7]; +S9, 15 µM): 401 ± 31 | revertant His+ colonies TA104 ([7]; +S9, 30 µM): 445 ± 49 | revertant His+ colonies TA104 ([7]; +S9, 150 µM): 305 ± 7 | revertant His+ colonies TA104 ([7]; +S9, 300 µM): 297 ± 4 | revertant His+ colonies TA104 ([7]; +S9, 1500 µM): Cytotoxic | CC50 ([7]; read-out: LC50 (bacterial cytotoxicity) TA104, presence of S9 mix): > 1200 µM | revertant His+ colonies TA104 ([7]; −S9, 3 µM): 195 ± 9 | revertant His+ colonies TA104 ([7]; −S9, 15 µM): 199 ± 7 | revertant His+ colonies TA104 ([7]; −S9, 30 µM): 192 ± 3 | revertant His+ colonies TA104 ([7]; −S9, 150 µM): 201 ± 17 | revertant His+ colonies TA104 ([7]; −S9, 300 µM): 206 ± 8 | revertant His+ colonies TA104 ([7]; −S9, 1500 µM): 241 ± 10 | CC50 at 30 min [8]: 1390 ± 14.8 µM | SI [9]: >17.7 | EC50 [9]: 28.2 ± 0.75 µM | revertant His+ colonies TA102 ([10]; +S9, 3 µM): 392 ± 8 | revertant His+ colonies TA102 ([10]; +S9, 15 µM): 390 ± 12 | revertant His+ colonies TA102 ([10]; +S9, 30 µM): 402 ± 24 | revertant His+ colonies TA102 ([10]; +S9, 150 µM): 401 ± 66 | revertant His+ colonies TA102 ([10]; +S9, 300 µM): 403 ± 12 | revertant His+ colonies TA102 ([10]; +S9, 1500 µM): 430 ± 14 | revertant His+ colonies TA102 ([10]; −S9, 3 µM): 373 ± 50 | revertant His+ colonies TA102 ([10]; −S9, 15 µM): 386 ± 35 | revertant His+ colonies TA102 ([10]; −S9, 30 µM): 387 ± 33 | revertant His+ colonies TA102 ([10]; −S9, 150 µM): 386 ± 5 | revertant His+ colonies TA102 ([10]; −S9, 300 µM): 400 ± 24 | revertant His+ colonies TA102 ([10]; −S9, 1500 µM): 450 ± 32

CC(=O)Nc1ccc(Br)cc1C(F)(F)C(=O)NCC[C@@H]1C[C@H](CC(=O)OC(C)(C)C)OC(C)(C)O1 [Compound 13d, tert-Butyl 2-((4R,6R)-6-(2-(2-(2-acetamido-5-bromophenyl)-2,2-difluoroacetamido)ethyl)-2,2-dimethyl-1,3-dioxan-4-yl)acetate]
Bacterial Mutagenicity [1]: Yes | cytotoxicity (survival rate) in micronuclei assay [2]: non-cytotoxic | micronuclei formation (genotoxicity) [2]: induced a significant micronuclei formation; also recorded: induced genotoxicity | SI [3]: Inactive | EC50 [3, 12]: > 89 µM | Antiplasmodial Activity [3]: No | micronuclei formation (genotoxicity) [4]: induced genotoxicity | Mammalian Cell Genotoxicity [11]: Yes | revertant His+ colonies TA100 ([5]; +S9, 3 µM): 156 ± 18 | revertant His+ colonies TA100 ([5]; +S9, 15 µM): 166 ± 11 | revertant His+ colonies TA100 ([5]; +S9, 30 µM): 173 ± 1 | revertant His+ colonies TA100 ([5]; +S9, 150 µM): 174 ± 21 | revertant His+ colonies TA100 ([5]; +S9, 300 µM): 181 ± 15 | revertant His+ colonies TA100 ([5]; +S9, 1500 µM): Cytotoxic | revertant His+ colonies TA100 ([5]; −S9, 3 µM): 99 ± 4 | revertant His+ colonies TA100 ([5]; −S9, 15 µM): 96 ± 12 | revertant His+ colonies TA100 ([5]; −S9, 30 µM): 93 ± 1 | revertant His+ colonies TA100 ([5]; −S9, 150 µM): Cytotoxic | CC50 at 96 h [6]: 114 ± 5.29 µM | revertant His+ colonies TA104 ([7]; +S9, 3 µM): 490 ± 52 | revertant His+ colonies TA104 ([7]; +S9, 15 µM): 513 ± 19 | revertant His+ colonies TA104 ([7]; +S9, 30 µM): 530 ± 7 | revertant His+ colonies TA104 ([7]; +S9, 150 µM): 541 ± 29 | revertant His+ colonies TA104 ([7]; +S9, 300 µM): 589 ± 5 | revertant His+ colonies TA104 ([7]; +S9, 1500 µM): 591 ± 11 | revertant His+ colonies TA104 ([7]; −S9, 3 µM): 469 ± 65 | revertant His+ colonies TA104 ([7]; −S9, 15 µM): 515 ± 61 | revertant His+ colonies TA104 ([7]; −S9, 30 µM): 570 ± 53 | revertant His+ colonies TA104 ([7]; −S9, 150 µM): 605 ± 61 | revertant His+ colonies TA104 ([7]; −S9, 300 µM): 615 ± 15 | revertant His+ colonies TA104 ([7]; −S9, 1500 µM): 620 ± 31 | SI [9]: >21.6 | EC50 [9]: 23.2 ± 3.13 µM | revertant His+ colonies TA102 ([10]; +S9, 3 µM): 153 ± 13 | revertant His+ colonies TA102 ([10]; +S9, 15 µM): 155 ± 20 | revertant His+ colonies TA102 ([10]; +S9, 30 µM): 160 ± 11 | revertant His+ colonies TA102 ([10]; +S9, 150 µM): 162 ± 31 | revertant His+ colonies TA102 ([10]; +S9, 300 µM): 176 ± 11 | revertant His+ colonies TA102 ([10]; +S9, 1500 µM): Cytotoxic | revertant His+ colonies TA102 ([10]; −S9, 3 µM): 356 ± 7 | revertant His+ colonies TA102 ([10]; −S9, 15 µM): Cytotoxic
